Measurements published in patent US20230399327A1, “HIGH ACTIVITY HPK1 KINASE INHIBITOR” (ADLAI NORTYE BIOPHARMA CO., LTD., priority 2020, published 2023).

Key:
PBMC = PBMC IL-2 ELISA assay (IL-2 secretion after anti-CD3/anti-CD28); type: cell-based, human; conditions: highest signal vs 0.1% DMSO, anti-CD3/CD28, 24 h
Method: Test Example 5: Detection of Compound's Activating Ability to Secrete Cytokine Interleukin-2 (IL-2) from PBMC (Method 5)
The specific operation is as follows: the compound powder was dissolved in DMSO to 10 mM, 2 μl of the compound was added to 998 μl of RPMI 1640 medium (contained 10% FBS in this test), and the highest concentration point was obtained after vortexing. The compound solution was gradually diluted 3 times with 0.2% DMSO medium, with a total of 8 concentration points. That treated with RPMI 1640 medium solution containing 0.1% DMSO was used as a control. 1×10˜ 5 PBMC cells were added to each well of Corning 96-well cell culture plate (item number: 3599), and then the same volume of compound diluent was added to the control group. RPMI 1640 medium containing 0.2% DMSO was added to the control group and incubated in a 37° C. cell incubator (Thermo Fisher Scientific, model: 3111) for 1 hour. Then add Anti-human CD3 Antibody and 1 μg/ml Anti-human CD28 Antibody at a final concentration of 0.1 μg/ml, and place in a 37° C. cell culture incubator to incubate for 24 hours. The Human IL-2 DuoSet ELISA KIT was used to detect the IL-2 content in the cell supernatant, and the Human IL-2 DuoSet ELISA detection was performed according to the operating instructions of the kit. Data are described as the highest fold ratio of the stimulated signal of the compound to the signal of 0.1% DMSO.

HPK1 kinase = HPK1 kinase (Homo sapiens (Human), UniProt Q92918); assay: HPK1 kinase activity inhibition (ADP-Glo Kinase Assay); type: biochemical; conditions: HPK1, MBP substrate, ATP, 25° C. 60 min
In short: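 HPK1 (diluted to 30 nM before addition) preincubated 20 min at 25 °C with compound (8-point, 5-fold series) in MOPS pH 7.2 buffer with MgCl2, EDTA, EGTA, DTT. Reaction started with substrate solution of 10 μM MBP and 20 μM ATP, run 60 min at 25 °C; ADP-Glo luminescence, IC50 reported.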

DC2.4 cells = assay: DC2.4 IL-6 ELISA assay (IL-6 secretion after LPS); type: cell-based, mouse; conditions: highest signal vs 0.1% DMSO, 24 h
Method: Test Example 4: Detection of Compound's Activating Ability to Stimulate DC2.4 Cells to Secrete Cytokine Interleukin-6 (IL-6) ([…])
The specific operation is as follows: the compound powder was dissolved in DMSO to 10 mM, 2 μl of the compound was added to 998 μl of RPMI 1640 medium (contained 10% FBS in this test), and the highest concentration point was obtained after vortexing. The compound solution was gradually diluted 3 times with 0.2% DMSO medium, with a total of 8 concentration points. That treated with RPMI 1640 medium solution containing 0.1% DMSO was used as a control. Add 10^5 DC2.4 cells to each well of Corning 96-well cell culture plate (product number: 3599), then add an equal volume of compound dilution, add RPMI 1640 medium containing 0.2% DMSO to the control group, and place the cells at 37° C. to incubate for 1 h in an incubator (Thermo Fisher Scientific, model: 3111). Subsequently, LPS was added at a final concentration of 3.2 ng/ml, and placed in a cell culture incubator at 37° C. for 24 hours. Mouse IL-6 DuoSet ELISA KIT was used to detect the IL-6 content in the cell supernatant, and the Mouse […] DuoSet ELISA detection was carried out according to the operating instructions of the kit. Data are described as the highest fold ratio of the stimulated signal of the compound to the signal of 0.1% DMSO.

mouse spleen cells = assay: Spleen IL-2 ELISA assay (IL-2 secretion after Concanavalin A); type: cell-based, mouse (C57BL/6); conditions: highest signal vs 0.1% DMSO, ConA, 24 h
Method: Test Example 3: Detection of Compound's Activating Ability to Secrete Cytokine Interleukin-2 (IL-2) from Mouse Spleen Cells (Method 3)
The specific operation is as follows: the compound powder was dissolved in DMSO to 10 mM, 2 μl of the compound was added to 998 μl of RPMI 1640 medium (contained 10% FBS in this test), and the highest concentration point was obtained after vortexing. The compound solution was gradually diluted 3 times with 0.2% DMSO medium, with a total of 8 concentration points. That treated with RPMI 1640 medium solution containing 0.1% DMSO was used as a control. Add 10^5 mouse spleen cells to each well of Corning 96-well cell culture plate (product number: 3599), then add an equal volume of compound dilution, add RPMI 1640 medium containing 0.2% DMSO to the control group, and place the cells at 37° C. to incubate for 1 h in a cell culture incubator (Thermo Fisher Scientific, model: 3111). Then add Concanavalin A at a final concentration of 0.4 μg/ml and place in a cell culture incubator at 37° C. for 24 hours. Mouse IL-2 DuoSet ELISA KIT was used to detect the IL-2 content in the cell supernatant, and the Mouse […] DuoSet ELISA detection was carried out according to the operating instructions of the kit. Data are described as the highest fold ratio of the stimulated signal of the compound to the signal of 0.1% DMSO.

[1] = at compound concentration 10 μM
[2] = at compound concentration 0.37 μM
[3] = at compound concentration 1.1 μM
[4] = at compound concentration 1.11 μM
[5] = at compound concentration 3.3 μM

Chain of HPK1 kinase (Q92918 whole entry): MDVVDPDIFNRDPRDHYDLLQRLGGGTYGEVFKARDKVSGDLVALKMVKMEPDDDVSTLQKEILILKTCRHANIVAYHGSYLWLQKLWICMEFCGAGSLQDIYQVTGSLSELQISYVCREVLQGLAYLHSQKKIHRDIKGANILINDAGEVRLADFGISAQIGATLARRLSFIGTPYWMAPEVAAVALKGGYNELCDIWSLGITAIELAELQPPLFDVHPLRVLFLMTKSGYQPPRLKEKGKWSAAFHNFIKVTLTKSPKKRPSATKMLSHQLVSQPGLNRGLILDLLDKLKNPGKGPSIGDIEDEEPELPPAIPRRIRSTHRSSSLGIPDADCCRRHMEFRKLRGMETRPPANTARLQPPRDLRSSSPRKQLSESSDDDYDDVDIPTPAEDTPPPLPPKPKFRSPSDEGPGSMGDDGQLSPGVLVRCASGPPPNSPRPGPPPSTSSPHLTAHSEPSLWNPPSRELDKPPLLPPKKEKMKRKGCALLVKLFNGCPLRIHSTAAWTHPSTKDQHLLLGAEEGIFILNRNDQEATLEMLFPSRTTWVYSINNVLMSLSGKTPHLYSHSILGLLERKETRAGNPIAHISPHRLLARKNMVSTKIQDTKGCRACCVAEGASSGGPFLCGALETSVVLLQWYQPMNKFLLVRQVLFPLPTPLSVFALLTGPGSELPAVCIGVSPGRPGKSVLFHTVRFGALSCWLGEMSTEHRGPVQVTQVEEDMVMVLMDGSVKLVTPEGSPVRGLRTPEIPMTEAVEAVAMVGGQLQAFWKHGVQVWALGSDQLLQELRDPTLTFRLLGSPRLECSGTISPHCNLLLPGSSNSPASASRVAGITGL

| Compound | IC50 (HPK1 kinase) | % IL-2 increased (relative to DMSO control) (PBMC; [2]) | % IL-6 increased (relative to DMSO control) (DC2.4 cells; [4]) | further results |
| --- | --- | --- | --- | --- |
| 3-((8-(3,3-difluoropyrrolidin-1-yl)pyrido[3,4-d]pyrimidin-2-yl)amino)-1,6-dimethyl-5,6, 7,8-tetrahydro-1,6-naphthyridin-2(1H)-one [Example 85] | 25.3 nM |  |  | % IL-2 increased (relative to DMSO control) (PBMC; [1]): 339%; % IL-6 increased (relative to DMSO control) (DC2.4 cells; [1]): 305.00%; % IL-2 increased (relative to DMSO control) (mouse spleen cells; [1]): 260% |
| COc1nc2c(cc1Nc1ncc3ccnc(N[C@@H](CO)C(C)C)c3n1)CN(C)CC2 [Example 92] | 0.23 nM | 182% |  | % IL-6 increased (relative to DMSO control) (DC2.4 cells; [2]): 546.00%; % IL-2 increased (relative to DMSO control) (mouse spleen cells; [2]): 160% |
| COc1nc2c(cc1Nc1ncc3ccnc(N[C@@H]4CCC[C@H]4O)c3n1)CN(C)CC2 [Example 99] | < 0.1 nM |  |  | % IL-2 increased (relative to DMSO control) (PBMC; [3]): 236%; % IL-6 increased (relative to DMSO control) (DC2.4 cells; [1]): 526.00% |
| COc1nc2c(cc1Nc1ncc3ccnc(N[C@@H]4CC[C@@H](O)C4)c3n1)CN(C)CC2 [Example 100] | < 0.1 nM | 239% | 623.00% | % IL-2 increased (relative to DMSO control) (mouse spleen cells; [5]): 190% |
| COc1nc2c(cc1Nc1ncc3ccnc(N[C@@H]4CCC[C@@H]4O)c3n1)CN(C)CC2 [Example 102] | < 0.1 nM |  | 553.00% | % IL-2 increased (relative to DMSO control) (mouse spleen cells; [5]): 180% |
| COc1nc2c(cc1Nc1ncc3ccnc(N[C@H]4CCC[C@H]4O)c3n1)CN(C)CC2 [Example 104] | < 0.1 nM | 139% | 341.00% | % IL-2 increased (relative to DMSO control) (mouse spleen cells; at compound concentration 0.0046 μM): 120% |
| COc1nc2c(cc1Nc1ncc3ccnc(N[C@H]4CCC[C@@H]4O)c3n1)CN(C)CC2 [Example 105] | < 0.1 nM |  | 321.00% | % IL-2 increased (relative to DMSO control) (PBMC; [3]): 176%; % IL-2 increased (relative to DMSO control) (mouse spleen cells; [3]): 170% |
